{
  "source": "patent US20230066156A1",
  "about": "“6-SUBSTITUTED, 22-CYANO HYODEOXYCHOLANIC ANALOGUES AND USES THEREOF” (PRECISION BIO-THERAPEUTICS S.R.L., priority 2019, published 2023)",
  "system": "TNBS-induced colitis",
  "experiment": "TNBS-induced colitis in Gpbar1+/+ and Gpbar1-/- mice",
  "type": "in vivo",
  "details": "for development and severity of colitis assessed by body weight lost, CDAI and histological sections: 30 mg/kg daily by o.s., FIG. 2A-C",
  "experimental": "Because macrophages are one of the most abundant leucocytes in the intestinal mucosa and are implicated in the pathogenesis of IBDs (Inflammatory bowel diseases), the effect of PBT110B was investigated in a TNBS-induced colitis (2,4,6-trinitrobenzene sulfonic acid-induced) in Gpbar1+/+ and Gpbar1-/- mice. Gpbar1+/+ and Gpbar1-/- mice were treated with TNBS alone or in combination PBT110B (30 mg/kg). […] In addition, the expression of pro- and anti-inflammatory cytokines in the colon of these animals (FIG. 3) was analyzed. Gpbar1^+/+ and Gpbar1^-/- mice were treated with TNBS alone or in combination PBT110B (30 mg/kg). Values are normalized relative to Gapdh mRNA and are expressed as mean±SEM (n=5); ^#p<0.05. GPBAR1 null mice on C57BL/6NCrl background, and C57BL/6NCrl congenic littermates were originally donated by Dr. […] (Schering-Plough Research Institute, Kenilworth). The colonies were maintained in the animal facility of University of Perugia. Mice were housed under controlled temperatures (22° C.) and photoperiods (12:12-hour light/dark cycle), allowed unrestricted access to standard mouse chow and tap water and allowed to acclimate to these conditions for at least 5 days before inclusion in an experiment. The study was conducted in agreement with the Italian law and the protocol was approved by ethical committee of University of Perugia and by a National Committee of Italian Ministry of Health permit n° 1126/2016-PR. The health and body conditions of the animals were monitored daily by the veterinarian in the animal facility. The study protocol caused minor suffering, however, animals that lost more than 25% of the initial body weight were euthanized. Colitis was induced in mice by TNBS. Mice were fasted for 12 h (day -1) and the day after (day 0) mice were anesthetized, and a 3.5 F catheter inserted into the colon such that the tip was 3 cm proximal to the anus. To induce colitis, 1 mg of 2,4,6-trinitrobenzenesulfonic acid TNBS (Sigma Chemical Co, St Louis, Mo.) in 50% ethanol was administered via catheter into the lumen using a 1 ml syringe (injection volume of 200 μL); control mice received 50% ethanol alone. Animals were monitored daily. At the end of the experiments, the surviving mice were sacrificed and the colon was excised, weighed, and evaluated for macroscopic damage. In some groups of mice, PBT110B dissolved in nitrocellulose 1% was administered daily also by o.s. at the concentration of 30 mg/kg of body weight The severity of colitis was measured each day for each mouse by assessing the body weight, the fecal blood and stool consistency. Each parameter was scored from 0 to 4 and the sum represents the Colitis Disease Activity Index (CDAI). The scoring system was as following: percent of body weight loss: none=0; 1-5%=1; 5-10%=2; 10-20%=3; >20%=4. Stool consistency: normal=0; soft but still formed=1; very soft=2; diarrhea=3; liquid stools that stick to the anus or anal occlusion=4. Fecal blood: none=0; visible in the stool=2; severe bleeding with fresh blood around the anus and very present in the stool=4. Samples of distal colon (2-3 cm from the anus) were fixed in buffered formalin, cut into 5-μm-thick sections (150 μm between each section, four to eight per fragment per colon), and stained with H&E. Colon samples were immediately frozen in liquid nitrogen and stored at -80° C. until used, mechanically homogenated with the aid of a pestle, and the obtained materials re-suspended in 1 ml of Trizol (Thermo ScientificTM). […]",
  "key": {"[1]": {"details": "wild-type mice, 30 mg/kg, Real-Time PCR, FIG. 3"}},
  "data": [
    {"smiles": "CC[C@]1(O)C[C@H]2[C@@H]3CC[C@H]([C@H](C)CC#N)[C@@]3(C)CC[C@@H]2[C@@]2(C)CC[C@@H](O)C[C@@H]12", "note": "[PBT110B, 3α,6α-dihydroxy-6β-ethyl-24-nor-5β-cholan-23-nitrile]", "values": [
      {"measurement": "development and severity of colitis assessed by body weight lost, CDAI and histological sections", "setting": "Gpbar1+/+ mice", "result": "attenuated"},
      {"measurement": "development and severity of colitis assessed by body weight lost, CDAI and histological sections", "setting": "Gpbar1-/- mice", "result": "failed to do the same"},
      {"measurement": "beneficial effects on colon cytokine expression (pro-inflammatory cytokines, IL-10)", "setting": "mice lacking the receptor (Gpbar1-/-), 30 mg/kg, FIG. 3", "result": "lost"},
      {"measurement": "expression of pro-inflammatory cytokines (Il-6, Il-1β, TNF-α) in the colon", "setting": "[1]", "result": "reducing"},
      {"measurement": "expression of the anti-inflammatory cytokine IL-10 in the colon", "setting": "[1]", "result": "increasing"}
    ]}
  ]
}
